Several values for one entry are separate records, joined by “and”; a condition that tells them apart may be missing. Equal values may be shown once. Toxic doses and inconclusive results are not listed.

The experiment has as its system BDF1 mice, P388 leukemia ip, median survival T/C. Put plainly: NCI In Vivo Anticancer Drug Screen. Data for tumor model P388 Leukemia (intraperitoneal) in B6D2F1 (BDF1) mice. The conditions noted are these: endpoint: median survival time, higher = longer survival. Put shortly: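 Vehicle-dosed animals serve as the reference; survival of compound-dosed, tumour-implanted mice is divided by it.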

Where [1] appears, read: dose: 12.5 mg/kg/injection, schedule: Q01DX009 (ip), vehicle: saline with Tween-80.
Where [2] appears, read: dose: 25.0 mg/kg/injection, schedule: Q01DX009 (ip), vehicle: saline with Tween-80.
[3] abbreviates: dose: 50.0 mg/kg/injection, schedule: Q01DX009 (ip), vehicle: saline with Tween-80.
[4] abbreviates: dose: 12.5 mg/kg/injection, schedule: Q04DX003 (ip), vehicle: saline.
Setting [5] is: dose: 25.0 mg/kg/injection, schedule: Q04DX003 (ip), vehicle: saline.
Where [6] appears, read: dose: 25.0 mg/kg/injection, schedule: Q04DX003 (ip), vehicle: saline with Tween-80.
[7] abbreviates: dose: 50.0 mg/kg/injection, schedule: Q04DX003 (ip), vehicle: saline with Tween-80.
The mark [8] stands for this setting: dose: 100.0 mg/kg/injection, schedule: Q04DX003 (ip), vehicle: saline with Tween-80.
Where [9] appears, read: dose: 200.0 mg/kg/injection, schedule: Q04DX003 (ip), vehicle: saline with Tween-80.
The mark [10] stands for this setting: dose: 6.25 mg/kg/injection, schedule: Q01DX009 (ip), vehicle: saline.
The mark [11] stands for this setting: dose: 12.5 mg/kg/injection, schedule: Q01DX009 (ip), vehicle: saline.
Setting [12] is: dose: 100.0 mg/kg/injection, schedule: Q01DX009 (ip), vehicle: saline with Tween-80.

`Cc1ccc(C(=O)CCl)c(C)c1`: the T/C by setting is: under setting [1], 100 % of control; under setting [2], 100 % of control; under setting [3], 95 % of control.
Turning to `NC(CSCc1ccccc1)(CSCc1ccccc1)C(=O)O`, the T/C (dose: 12.5 mg/kg/injection, schedule: Q01DX009 (ip), vehicle: other) is 103 % of control; the T/C (dose: 25.0 mg/kg/injection, schedule: Q01DX009 (ip), vehicle: other) was 122 % of control; the T/C (dose: 50.0 mg/kg/injection, schedule: Q01DX009 (ip), vehicle: other) is 97 % of control and 110 % of control; the T/C (dose: 100.0 mg/kg/injection, schedule: Q01DX009 (ip), vehicle: other) is 117 % of control; the T/C (dose: 200.0 mg/kg/injection, schedule: Q01DX009 (ip), vehicle: other) was 96 % of control; the T/C (dose: 400.0 mg/kg/injection, schedule: Q01DX009 (ip), vehicle: other) was 94 % of control.
`[NH-]CC(=O)[N-]CC(=O)O.[NH-]CC(=O)[N-]CC(=O)O.[Ni]`: the T/C by setting is: (dose: 3.0 mg/kg/injection, schedule: Q01DX009 (ip), vehicle: saline) 100 % of control; (dose: 6.0 mg/kg/injection, schedule: Q01DX009 (ip), vehicle: saline) 103 % of control; (dose: 12.0 mg/kg/injection, schedule: Q01DX009 (ip), vehicle: saline) 116 % of control; under setting [4], 104 % of control; (dose: 18.0 mg/kg/injection, schedule: Q01DX009 (ip), vehicle: saline) 110 % of control; under setting [5], 109 % of control. In addition, the T/C (dose: 50.0 mg/kg/injection, schedule: Q04DX003 (ip), vehicle: saline) was 100 % of control and 118 % of control.
Regarding `CC(=O)OC1CC2(C)C3(CO3)C1OC1C=C(C)C(=O)C(O)C12CO` (stereo not drawn), the T/C was 105 % of control (dose: 5.0 mg/kg/injection, schedule: Q04DX002 (ip), vehicle: saline + alcohol); 100 % of control (dose: 10.0 mg/kg/injection, schedule: Q04DX002 (ip), vehicle: saline + alcohol); 107 % of control (dose: 20.0 mg/kg/injection, schedule: Q04DX002 (ip), vehicle: saline + alcohol); 109 % of control (dose: 40.0 mg/kg/injection, schedule: Q04DX002 (ip), vehicle: saline + alcohol).
In the case of `O=C1CC(N2C(=O)c3ccccc3C2=O)C(=O)N1` (stereo not drawn), the T/C by setting is: under setting [6], 101 % of control; under setting [7], 103 % of control; under setting [8], 103 % of control; under setting [9], 99 % of control.
For `C#CC(N)=O`, the T/C is, setting by setting: (dose: 12.5 mg/kg/injection, schedule: Q04DX003 (ip), vehicle: Klucel (hydroxypropylcellulose) (HPC)) 100 % of control; (dose: 25.0 mg/kg/injection, schedule: Q04DX003 (ip), vehicle: Klucel (hydroxypropylcellulose) (HPC)) 90 % of control.
Turning to `O=C(O)CN=Cc1ccccc1O.O=C(O)CN=Cc1ccccc1O.[Fe]`, the T/C runs as follows: (dose: 6.25 mg/kg/injection, schedule: Q01DX009 (ip), vehicle: saline with Tween-80) 100 % of control; under setting [10], 106 % of control; (dose: 6.25 mg/kg/injection, schedule: Q04DX003 (ip), vehicle: saline) 100 % of control; under setting [1], 100 % of control; under setting [11], 115 % of control; under setting [4], 100 % of control. Further, the T/C reads like this: under setting [2], 100 % of control and 110 % of control; (dose: 25.0 mg/kg/injection, schedule: Q01DX009 (ip), vehicle: saline) 90 % of control; under setting [6], 100 % of control; under setting [5], 95 % of control; under setting [3], 100 % of control; (dose: 50.0 mg/kg/injection, schedule: Q01DX009 (ip), vehicle: saline) 86 % of control. For the same compound, under setting [7], the T/C is 86 % of control.
Consider `FC(F)(F)c1cc(NC2=NCCN=C(Nc3cc(C(F)(F)F)cc(C(F)(F)F)c3)SS2)cc(C(F)(F)F)c1`, for which the T/C by setting is: (dose: 50.0 mg/kg/injection, schedule: Q01DX009 (ip), vehicle: Klucel (hydroxypropylcellulose) (HPC)) 102 % of control; (dose: 100.0 mg/kg/injection, schedule: Q01DX009 (ip), vehicle: Klucel (hydroxypropylcellulose) (HPC)) 96 % of control; (dose: 200.0 mg/kg/injection, schedule: Q01DX009 (ip), vehicle: Klucel (hydroxypropylcellulose) (HPC)) 110 % of control.
Regarding `Nc1nccc(NC(c2ccccc2)c2ccccc2)c1N`, the T/C (dose: 3.0 mg/kg/injection, schedule: Q01DX009 (ip), vehicle: DMSO) is 95 % of control; the T/C (dose: 6.0 mg/kg/injection, schedule: Q01DX009 (ip), vehicle: DMSO) was 100 % of control; the T/C (dose: 12.0 mg/kg/injection, schedule: Q01DX009 (ip), vehicle: DMSO) is 95 % of control; the T/C (dose: 12.5 mg/kg/injection, schedule: Q01DX009 (ip), vehicle: DMSO) is 103 % of control; the T/C (dose: 12.5 mg/kg/injection, schedule: Q04DX003 (ip), vehicle: DMSO) was 95 % of control; the T/C (dose: 25.0 mg/kg/injection, schedule: Q04DX003 (ip), vehicle: DMSO) is 100 % of control. Besides, the T/C (dose: 50.0 mg/kg/injection, schedule: Q04DX003 (ip), vehicle: DMSO) was 100 % of control.
For the compound `C/C=C(/Cl)c1c(C)cc(C)cc1C`, the T/C was 108 % of control under setting [12]; 100 % of control under setting [8]; 108 % of control (dose: 200.0 mg/kg/injection, schedule: Q01DX009 (ip), vehicle: saline with Tween-80); 111 % of control under setting [9]; 103 % of control (dose: 400.0 mg/kg/injection, schedule: Q04DX003 (ip), vehicle: saline with Tween-80).
For `Cn1cc(C=O)c2nccnc21`, the T/C is, setting by setting: (dose: 0.78 mg/kg/injection, schedule: Q01DX009 (ip), vehicle: saline) 92 % of control; (dose: 1.56 mg/kg/injection, schedule: Q01DX009 (ip), vehicle: saline) 112 % of control; under setting [10], 91 % of control; under setting [11], 86 % of control; under setting [12], 117 % of control; (dose: 100.0 mg/kg/injection, schedule: Q01DX009 (ip), vehicle: saline) 108 % of control.
As to `CC(=O)N(C)c1ccc(Nc2cc(C)[nH]c3ccc4ncnc4c23)cc1`, the T/C is 158 % of control (dose: 50.0 mg/kg/injection, schedule: Q04DX002 (ip), vehicle: saline); 181 % of control (dose: 100.0 mg/kg/injection, schedule: Q04DX002 (ip), vehicle: saline with Tween-80); 181 % of control (dose: 100.0 mg/kg/injection, schedule: Q04DX002 (ip), vehicle: saline).

The values above are taken from PubChem BioAssay AID328 (DTP/NCI, 2004).
